Data set [1] has as its system synthesis of sphingolipid GlcCer in C. neoformans. To be noted: in words, 'It was known'; cited from earlier work.
Data set [2] deals with A. fumigatus. The data set is described as follows: Antifungal activity assay (MIC80), A. fumigatus. It counts as cell-based. To be noted: Aspergillus fumigatus; lowest concentration inhibiting 80% of growth; RPMI pH 7.0, 37° C., 5% CO2, 24 to 72 h. As to the method: (§1) MICs were determined following the methods of the Clinical and Laboratory Standards Institutes (CLSI) with modifications. Yeast nitrogen base (YNB) medium without amino acid (pH 7.0, 2% glucose) buffered with (4-(2-hydroxyethyl)-1-piperazineethanesulfonic acid) (HEPES) was used for MIC studies in C. neoformans. YNB medium without ammonium sulfate, without amino acid and 1% asparagine (pH 7.0, 2% glucose) was used for MIC studies in Candida strains. RPMI medium (pH 7.0, 2% glucose) was used for MIC studies in A. fumigatus. […] The compounds were serially diluted from 32 to 0.03 μg/mL, in a 96-well plate. The inoculum was prepared as described in the CLSI protocol M27A3 guidelines. The plates were incubated at 37° C. with 5% CO2 for 24 to 72 h and the optical density was measure at 450 nm. The MICs were determined as the lowest concentration of the compound that inhibited 80% of growth compared to the control.

Data set [3] deals with C. albicans. Kind of data set: Antifungal activity assay (MIC80), C. albicans. The format is cell-based. To be noted: Candida albicans; lowest concentration inhibiting 80% of growth; YNB pH 7.0, 37° C., 5% CO2, 24 to 72 h. As to the method:
as §1

Data set [4] concerns C. neoformans. Kind of data set: Antifungal activity assay (MIC80), C. neoformans. The format is cell-based. To be noted: Cryptococcus neoformans. As to the method: as §1
MICs was determined following the methods of the Clinical and Laboratory Standards Institutes (CLSI) with modifications. Yeast Nitrogen Base (YNB) medium (pH 7.0, 0.2% glucose) buffered with HEPES was used for MIC studies. […] The compound was serially diluted from 16 to 0.03 μg/ml, in a 96-well plate. The inoculum was prepared as described in the CLSI protocol M27A3 guidelines. The plates were incubated at 37° C. with 5% CO2 for 24 to 72 h and the optical density was measure at 450 nm. The MICs was determined as the lowest concentration of the compound that inhibited 80% of growth compared to the control.

Setting [5] is: lowest concentration inhibiting 80% of growth, YNB pH 7.0 HEPES, 37° C., 5% CO2, 24 to 72 h, read-out: MIC80 C. neoformans.

SMILES strings stand for the structures. In brackets after ≈: the same amount, converted by molar mass. Read-outs that look alike come from different tables or passages of the source.

Turning to `Cc1ccccc1C(=O)N/N=C/c1ccc(O)c(Br)c1` [BHBM], the “antifungal activities by inhibiting the synthesis of sphingolipid GlcCer” value in data set [1] is listed as “potent antifungal activities”.

Regarding `C#Cc1ccc(O)c(/C=N/NC(=O)c2ccc(Br)cc2Br)c1` [SB-AF-08-23, 2,4-Dibromo-N′-(5-ethynyl-2-hydroxybenzylidene)benzohydrazide], the MIC80 was 2 µg/mL (≈ 4.74 µM) in data set [2], no more than 0.01 µg/mL in data set [3] and 0.03 µg/mL (≈ 0.0711 µM) in data set [4] (setting [5]).

For the compound `C#Cc1cccc(O)c1/C=N/NC(=O)c1ccc(Br)cc1Br` [SB-AF-08-29, 2,4-Dibromo-N′-(2-ethynyl-6-hydroxybenzylidene)benzohydrazide], the MIC80 in data set [2] was greater than 32 µg/mL; in data set [3], 0.5 µg/mL (≈ 1.18 µM); in data set [4] (setting [5]), 0.031 µg/mL (≈ 0.0734 µM).

For `C#Cc1ccc(O)c(/C=N/NC(=O)c2ccc(Br)cc2)c1` [SB-AF-10-23, 4-Bromo-N′-(5-ethynyl-2-hydroxybenzylidene) benzohydrazide], the figures for the MIC80 in data set [2], in data set [3] and in data set [4] (setting [5]) were 2 µg/mL (≈ 5.83 µM), 0.06 µg/mL (≈ 0.175 µM) and 0.007 µg/mL (≈ 0.0204 µM), respectively.

Turning to `C#Cc1ccc(/C=N/NC(=O)c2ccc(Br)cc2)c(O)c1` [SB-AF-10-27, 4-Bromo-N′-(4-ethynyl-2-hydroxybenzylidene)benzohydrazide], the MIC80 was greater than 16 µg/mL in data set [2], 4 µg/mL (≈ 11.7 µM) in data set [3] and 0.03 µg/mL (≈ 0.0874 µM) in data set [4] (setting [5]).

In the case of `C#Cc1cccc(/C=N/NC(=O)c2ccc(Br)cc2)c1O` [SB-AF-10-28, 4-Bromo-N′-(3-ethynyl-2-hydroxybenzylidene)benzohydrazide], the MIC80 in data set [2] was determined as 4 µg/mL (≈ 11.7 µM); in data set [3], 2 µg/mL (≈ 5.83 µM); in data set [4] (setting [5]), 0.007 µg/mL (≈ 0.0204 µM).

For `C#Cc1cccc(O)c1/C=N/NC(=O)c1ccc(Br)cc1` [SB-AF-10-29, 4-Bromo-N-(2-ethynyl-6-hydroxybenzylidene)benzohydrazide], the MIC80 in data set [2] is greater than 32 µg/mL; in data set [3] it was 8 µg/mL (≈ 23.3 µM); in data set [4] (pH 7, read-out: MIC80 C. neoformans) it was 0.125 µg/mL (≈ 0.364 µM).

As for `C#Cc1ccc(O)c(/C=N/NC(=O)c2cc(Br)cc(Br)c2O)c1` [SB-AF-12-23, 2-Hydroxy-3,5-dibromo-N-(5-ethynyl-2-hydroxybenzylidene)benzohydrazide], the MIC80 in data set [2] was 4 µg/mL (≈ 9.13 µM); in data set [3], 0.12 µg/mL (≈ 0.274 µM); in data set [4] (setting [5]), 0.03 µg/mL (≈ 0.0685 µM).

As for `C#Cc1ccc(/C=N/NC(=O)c2cc(Br)cc(Br)c2O)c(O)c1` [SB-AF-12-27, 3,5-Dibromo-N′-(4-ethynyl-2-hydroxybenzylidene)-2-hydroxybenzohydrazide], the figures for the MIC80 in data set [2], in data set [3] and in data set [4] (setting [5]) were greater than 16 µg/mL, 2 µg/mL (≈ 4.57 µM) and 0.03 µg/mL (≈ 0.0685 µM), respectively.

Regarding `C#Cc1ccc(O)c(/C=N/NC(=O)c2ccc(Br)c(Br)c2)c1` [SB-AF-13-23, 3,4-Dibromo-N′-(5-ethynyl-2-hydroxybenzylidene)benzohydrazide], the MIC80 is 2 µg/mL (≈ 4.74 µM) in data set [2], 0.5 µg/mL (≈ 1.18 µM) in data set [3] and 0.06 µg/mL (≈ 0.142 µM) in data set [4] (setting [5]).

Turning to `C#Cc1ccc(/C=N/NC(=O)c2ccc(Br)c(Br)c2)c(O)c1` [SB-AF-13-27, 3,4-Dibromo-N′-(4-ethynyl-2-hydroxybenzylidene)benzohydrazide], the MIC80 was greater than 16 µg/mL in data set [2], 8 µg/mL (≈ 19 µM) in data set [3] and 0.007 µg/mL (≈ 0.0166 µM) in data set [4] (setting [5]).

Turning to `C#Cc1cccc(/C=N/NC(=O)c2ccc(Br)c(Br)c2)c1O` [SB-AF-13-28, 3,4-Dibromo-N′-(3-ethynyl-2-hydroxybenzylidene)benzohydrazide], the MIC80 in data set [2] amounted to 1 µg/mL (≈ 2.37 µM); in data set [3], 4 µg/mL (≈ 9.48 µM); in data set [4] (setting [5]), 0.015 µg/mL (≈ 0.0355 µM).

With `C#Cc1cccc(O)c1/C=N/NC(=O)c1ccc(Br)c(Br)c1` [SB-AF-13-29, 3,4-Dibromo-N′-(2-ethynyl-6-hydroxybenzylidene)benzohydrazide], the results for the MIC80 in data set [2], in data set [3] and in data set [4] (setting [5]) were 8 µg/mL (≈ 19 µM), 16 µg/mL (≈ 37.9 µM) and 0.06 µg/mL (≈ 0.142 µM), respectively.

Take `C#Cc1ccc(O)c(/C=N/NC(=O)c2ccc(OC(F)(F)F)cc2F)c1` [SB-AF-25-23, 2-Fluoro-4-(trifluoromethoxy)-N-(5-ethynyl-2-hydroxybenzylidene)benzohydrazide]: in data set [4] (setting [5]), the MIC80 came out at 4 µg/mL (≈ 10.9 µM).

Turning to `C#Cc1ccc(C(=O)N/N=C/c2ccc(C#C)cc2O)cc1` [SB-AF-36-27, 4-Ethynyl-N′-(4-ethynyl-2-hydroxybenzylidene)benzohydrazide], the MIC80 in data set [2] is greater than 16 µg/mL; in data set [3], 16 µg/mL (≈ 55.5 µM); in data set [4] (setting [5]) it was 0.007 µg/mL (≈ 0.0243 µM).

`COCc1ccc(C(=O)N/N=C/c2ccc(Br)cc2O)cc1` [SB-AF-39-13, 4-Methoxymethyl-N′-(4-bromo-2-hydroxybenzylidene)benzohydrazide]: the melting point was in the range of 198 to 199 °C.

As to `COCc1ccc(C(=O)N/N=C/c2cc(Br)ccc2O)cc1` [SB-AF-39-15, 4-Methoxymethyl-N′-(5-bromo-2-hydroxybenzylidene)benzohydrazide], the melting point was 188 to 189 °C.

For `COCc1ccc(C(=O)N/N=C/c2cccc(Br)c2O)cc1` [SB-AF-39-22, 4-Methoxymethyl-N′-(3-bromo-2-hydroxybenzylidene)benzohydrazide], the melting point lay in the range of 187 to 188 °C.

For the compound `C#Cc1ccc(O)c(/C=N/NC(=O)c2ccc(COC)cc2)c1` [SB-AF-39-23, 4-Methoxymethyl-N′-(5-ethynyl-2-hydroxybenzylidene)benzohydrazide], the MIC80 in data set [4] (setting [5]) was determined as 0.25 µg/mL (≈ 0.811 µM).

As for `CCOCc1ccc(C(=O)N/N=C/c2cc(Br)cc(Br)c2O)cc1` [SB-AF-40-17, 4-Ethoxymethyl-N′-(3,5-dibromo-2-hydroxybenzylidene)benzohydrazide], the melting point lay in the range of 205 to 207 °C.

In the case of `CCOCc1ccc(C(=O)N/N=C/c2cccc(Br)c2O)cc1` [SB-AF-40-22, 4-Ethoxymethyl-N′-(3-bromo-2-hydroxybenzylidene)benzohydrazide], the melting point is 176 to 177 °C.

Take `C#Cc1ccc(/C=N/NC(=O)c2ccc(COCC)cc2)c(O)c1` [SB-AF-40-27, 4-(Ethoxymethyl)-N′-(4-ethynyl-2-hydroxybenzylidene)benzohydrazide]: the MIC80 in data set [3] was 8 µg/mL (≈ 24.8 µM); in data set [4] (setting [5]), 0.031 µg/mL (≈ 0.0962 µM).

Turning to `CC(C)OCc1ccc(C(=O)N/N=C/c2ccc(Br)cc2O)cc1` [SB-AF-41-13, 4-Isopropoxymethyl-N′-(4-bromo-2-hydroxybenzylidene)benzohydrazide], the melting point fell in the range of 193 to 195 °C.

Consider `CC(C)OCc1ccc(C(=O)N/N=C/c2cc(Br)ccc2O)cc1` [SB-AF-41-15, 4-Isopropoxymethyl-N′-(5-bromo-2-hydroxybenzylidene)benzohydrazide], for which the melting point lay in the range of 179 to 181 °C.

With `CC(C)OCc1ccc(C(=O)N/N=C/c2cc(Br)cc(Br)c2O)cc1` [SB-AF-41-17, 4-Isopropoxymethyl-N′-(3,5-dibromo-2-hydroxybenzylidene)benzohydrazide], the melting point was in the range of 186 to 187 °C.

As for `C#Cc1ccc(/C=N/NC(=O)c2ccc(COC(C)C)cc2)c(O)c1` [SB-AF-41-27, N′-(4-Ethynyl-2-hydroxybenzylidene)-4-(isopropoxymethyl)benzohydrazide], the MIC80 is greater than 16 µg/mL in data set [3] and no more than 0.015 µg/mL in data set [4] (setting [5]).

On to `C#Cc1ccc(O)c(/C=N/NC(=O)c2ccc(C3(C(F)(F)F)N=N3)cc2)c1` [SB-AF-43-23, 4-(3-(Trifluoromethyl)-3H-diazirin-3-yl)-N′-(5-ethynyl-2-hydroxybenzylidene) benzohydrazide], for which the figures for the MIC80 in data set [2], in data set [3] and in data set [4] (setting [5]) were 1 µg/mL (≈ 2.69 µM), 1 µg/mL (≈ 2.69 µM) and 0.007 µg/mL (≈ 0.0188 µM), respectively.

`CCCOCc1ccc(C(=O)N/N=C/c2cc(Br)ccc2O)cc1` [SB-AF-44-15, 4-Propoxymethyl-N′-(5-bromo-2-hydroxybenzylidene)benzohydrazide]: the melting point was in the range of 175 to 176 °C.

The compound `CCCOCc1ccc(C(=O)N/N=C/c2cc(Br)cc(Br)c2O)cc1` [SB-AF-44-17, 4-Propoxymethyl-N′-(3,5-dibromo-2-hydroxybenzylidene)benzohydrazide] gave a melting point of 190 to 192 °C.

In the case of `C#Cc1ccc(/C=N/NC(=O)c2ccc(COCCC)cc2)c(O)c1` [SB-AF-44-27, N′-(4-Ethynyl-2-hydroxybenzylidene)-4-(propoxymethyl)benzohydrazide], the MIC80 was greater than 16 µg/mL in data set [3] and 0.25 µg/mL (≈ 0.743 µM) in data set [4] (setting [5]).

Regarding `C#Cc1ccc(/C=N/NC(=O)c2ccc(Br)c(O)c2)c(O)c1` [SB-AF-46-27, 4-Bromo-N′-(4-ethynyl-2-hydroxybenzylidene)-3-hydroxybenzohydrazide], the results for the MIC80 in data set [2], in data set [3] and in data set [4] (setting [5]) were greater than 32 µg/mL, greater than 16 µg/mL and 1 µg/mL (≈ 2.78 µM), respectively.

(Values after patent US20240336559A1, “ANTI-FUNGALS COMPOUNDS TARGETING THE SYNTHESIS OF FUNGAL SPHINGOLIPIDS” (The Research Foundation for the State University of New York, priority 2021, published 2024).)
